Assay results published in US12435087B2, “Modulators of DCN-1 and methods of use thereof” (Cellarity, Inc., priority 2023, dated 2025).
Where two headings read alike, the source gives them in different places.

Target: DCN1 (DCUND1) protein PONY domain (Homo sapiens (Human), UniProt Q96GG9)
Assay: TR-FRET assay (binding to DCN-1, displacement of FAM-labeled probe)
In short: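 Compounds read at 1, 5 and 24 h, 0.1% final DMSO, by TR-FRET between terbium-streptavidin on biotinylated DCN1 PONY domain (E. coli) and a FAM-tagged non-covalent inhibitor probe. Two setups used, 5 nM protein with 20 nM labelled probe, or 0.31 nM protein with 100 nM labelled plus 800 nM unlabelled probe; buffer had TritonX and 200 mM NaCl. % activity relative to high (with probe) and low (without probe) controls.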

[1] = 24 hr after treatment with compound, read-out: TR FRET IC50 24 hr
[2] = TR FRET IC50 1 hr (nM), 1 hr after treatment with compound
[3] = read-out: TR FRET IC50 1 hr, 1 hr after treatment with compound

Sequence of DCN1 (DCUND1) protein PONY domain (Q96GG9 60-248): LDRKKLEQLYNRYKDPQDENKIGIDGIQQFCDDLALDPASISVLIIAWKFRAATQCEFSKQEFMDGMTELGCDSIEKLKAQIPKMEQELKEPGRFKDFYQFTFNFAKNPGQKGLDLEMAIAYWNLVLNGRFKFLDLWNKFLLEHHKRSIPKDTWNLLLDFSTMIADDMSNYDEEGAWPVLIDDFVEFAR

## C=C(CN1CCOCC1)C(=O)NCc1cccc([C@@H]2c3cnn(-c4ccccc4)c3N(CC)C(=O)[C@H]2NC(=O)c2ccn(CC#N)n2)c1 [Compound I-340, 1-(cyanomethyl)-N-((4R,5S)-7-ethyl-4-(3-((2-(morpholinomethyl)acrylamido)methyl)phenyl)-6-oxo-1-phenyl-4,5,6,7-tetrahydro-1H-pyrazolo[3,4-b]pyridin-5-yl)-1H-pyrazole-3-carboxamide]
[1]
  IC50: 200 to 1000 nM
[2]
  IC50: 1000 to 3000 nM

## C/C=C(\CN1CCC1)C(=O)NCc1cccc([C@@H]2c3cnn(-c4ccccc4)c3N(CC)C(=O)[C@H]2NC(=O)c2cccc(C(F)(F)F)c2)c1 [Compound I-341]
[1]
  IC50: ≤ 200 nM
[2]
  IC50: 200 to 1000 nM

## C=C(C(=O)N(C)Cc1cccc([C@@H]2c3cnn(-c4ccccc4)c3N(CC)C(=O)[C@H]2NC(=O)c2ccn(C3CC3)n2)c1)C(C)N1CCC12COC2 (stereo partly drawn) [Compound I-343]
[1]
  IC50: 200 to 1000 nM
[2]
  IC50: 1000 to 3000 nM

## C=C(C(=O)NCc1cccc([C@@H]2c3cnn(-c4ccccc4)c3N(CC)C(=O)[C@H]2NC(=O)c2ccn(C(F)(F)F)n2)c1)C(C)N1CCC12COC2 (stereo partly drawn) [Compound I-344]
[1]
  IC50: ≤ 200 nM
[2]
  IC50: 200 to 1000 nM

## C=C(CN1CC2CC(C1)O2)C(=O)NCc1cccc([C@@H]2c3cnn(-c4ccccc4)c3N(CC)C(=O)[C@H]2NC(=O)c2nccc(C(F)(F)F)n2)c1 [Compound I-346]
[1]
  IC50: ≤ 200 nM
[3]
  IC50: ≤ 200 nM

## C=C(CN1CC2CCC(C1)O2)C(=O)NCc1cccc([C@@H]2c3cnn(-c4ccccc4)c3N(CC)C(=O)[C@H]2NC(=O)c2ccn(C(F)(F)F)n2)c1 [Compound I-347]
[1]
  IC50: ≤ 200 nM
[3]
  IC50: ≤ 200 nM

## CCN1C(=O)[C@@H](NC(=O)c2cccc(C(F)(F)F)c2)[C@H](c2cccc(CNC(=O)C3=CCN(C)C3)n2)c2cnn(-c3ccccc3)c21 [Compound I-348]
[1]
  IC50: 1000 to 3000 nM
[2]
  IC50: 1000 to 3000 nM

## C=C(CN(C)C1COC1)C(=O)NCc1cccc([C@H]2c3c(C)nn(-c4ccccc4)c3N(CC)C(=O)[C@@H]2NC(=O)c2cccc(C(F)(F)F)c2)c1 [Compound I-349]
[1]
  IC50: 200 to 1000 nM
[2]
  IC50: 1000 to 3000 nM

## C=C(CN1CCOCC1)C(=O)NCc1cccc([C@@H]2c3cnn(-c4ccccc4)c3N(CC)C(=O)[C@H]2NC(=O)c2ccn(CC)n2)c1 [Compound I-351]
[1]
  IC50: ≤ 200 nM
[2]
  IC50: 200 to 1000 nM

## C=C(C(=O)NCc1cccc([C@@H]2c3cnn(-c4ccccc4)c3N(CC)C(=O)[C@H]2NC(=O)c2csc(C(F)(F)F)n2)c1)C(C(C)C)N(C)C1COC1 (stereo partly drawn) [Compound I-352]
[1]
  IC50: ≤ 200 nM
[3]
  IC50: ≤ 200 nM

## C=C(CN1CCN(C2COC2)CC1)C(=O)NCc1cccc([C@@H]2c3c(C)nn(-c4ccccc4)c3N(CC)C(=O)[C@H]2NC(=O)c2cccc(C(F)(F)F)c2)c1 [Compound I-353]
[1]
  IC50: ≤ 200 nM
[3]
  IC50: ≤ 200 nM

## C=C(CN1CCN(C2COC2)CC1)C(=O)NCc1cccc([C@@H]2c3cnn(-c4ccccc4)c3N(CC)C(=O)[C@H]2NC(=O)c2nccc(C(F)(F)F)n2)n1 [Compound I-354]
[1]
  IC50: 1000 to 3000 nM
[2]
  IC50: 1000 to 3000 nM

## C=C(CN1CCN(C2COC2)CC1)C(=O)NCc1cccc([C@@H]2c3cnn(-c4ccccc4)c3N(CC)C(=O)[C@H]2NC(=O)c2ccn(C(F)(F)F)n2)c1 [Compound I-356]
[1]
  IC50: ≤ 200 nM
[3]
  IC50: ≤ 200 nM

## C=C(CN1CCOCC1)C(=O)NCc1cccc([C@@H]2c3cnn(-c4ccccc4)c3N(CC)C(=O)[C@H]2NC(=O)c2ccn(CCF)n2)c1 [Compound I-357]
[1]
  IC50: ≤ 200 nM
[2]
  IC50: 200 to 1000 nM

## CCC(=O)NCc1cccc([C@@H]2c3cnn(-c4ccccc4)c3N(CC)C(=O)[C@H]2NC(=O)c2nccc(C(F)(F)F)n2)c1 [Compound I-358]
[1]
  IC50: 1000 to 3000 nM
[2]
  IC50: 1000 to 3000 nM

## CCN1C(=O)[C@@H](NC(=O)c2nccc(C(F)(F)F)n2)[C@H](c2cccc(CNC(=O)C(COC)CN3CCC(F)(F)C3)c2)c2cnn(-c3ccccc3)c21 (stereo partly drawn) [Compound I-360]
[1]
  IC50: 1000 to 3000 nM
[2]
  IC50: 1000 to 3000 nM

## C=C(CN1CC(C)(O)C1)C(=O)NCc1cccc([C@@H]2c3cnn(-c4ccccc4)c3N(CC)C(=O)[C@H]2NC(=O)c2cccc(C(F)(F)F)c2)c1 [Compound I-361]
[1]
  IC50: ≤ 200 nM
[3]
  IC50: ≤ 200 nM

## CCN1C(=O)[C@H](NC(=O)c2cccc(C(F)(F)F)c2)[C@@H](c2cccc(CNC(=O)C3=CCN(C)C3)c2)c2c(C)nn(-c3ccccc3)c21 [Compound I-362, N-(3-((4S,5R)-7-ethyl-3-methyl-6-oxo-1-phenyl-5-(3-(trifluoromethyl)benzamido)-4,5,6,7-tetrahydro-1H-pyrazolo[3,4-b]pyridin-4-yl)benzyl)-1-methyl-2,5-dihydro-1H-pyrrole-3-carboxamide]
[1]
  IC50: 1000 to 3000 nM
[2]
  IC50: 1000 to 3000 nM

## C/C=C(\CN1CCOCC1)C(=O)NCc1cccc([C@@H]2c3cnn(-c4ccccc4)c3N(CC)C(=O)[C@H]2NC(=O)c2nccc(C(F)(F)F)n2)c1 [Compound I-363]
[1]
  IC50: ≤ 200 nM
[2]
  IC50: 200 to 1000 nM

## C=C(CN1CCOCC1)C(=O)NCc1cccc([C@@H]2c3cnn(-c4ccccc4)c3N(CC)C(=O)[C@H]2NC(=O)c2ccn(CC(F)F)n2)c1 [Compound I-364]
[1]
  IC50: ≤ 200 nM
[2]
  IC50: 200 to 1000 nM

## C/C=C(\CN(C)C1COC1)C(=O)NCc1cccc([C@@H]2c3cnn(-c4ccccc4)c3N(CC)C(=O)[C@H]2NC(=O)c2csc(C(F)(F)F)n2)c1 [Compound I-365]
[1]
  IC50: ≤ 200 nM
[2]
  IC50: 200 to 1000 nM

## C/C=C(\CN1CCC1)C(=O)Nc1cccc([C@@H]2c3cnn(-c4ccccc4)c3N(CC)C(=O)[C@H]2NC(=O)c2nccc(C(F)(F)F)n2)c1 [Compound I-367]
[1]
  IC50: ≤ 200 nM
[2]
  IC50: 1000 to 3000 nM

## C/C=C(\CN1CCC(F)(F)C1)C(=O)Nc1cccc([C@@H]2c3cnn(-c4ccccc4)c3N(CC)C(=O)[C@H]2NC(=O)c2nccc(C(F)(F)F)n2)c1 [Compound I-368]
[1]
  IC50: ≤ 200 nM
[2]
  IC50: 1000 to 3000 nM

## C/C=C(/CN1CCN(C2COC2)CC1)C(=O)N(C)c1cccc([C@@H]2c3cnn(-c4ccccc4)c3N(CC)C(=O)[C@H]2NC(=O)c2csc(C(F)(F)F)n2)c1 [Compound I-369]
[1]
  IC50: 1000 to 3000 nM
[2]
  IC50: 1000 to 3000 nM

## C=C(CN1CCC12COC2)C(=O)N(C)Cc1cccc([C@@H]2c3cnn(-c4ccccc4)c3N(CC)C(=O)[C@H]2NC(=O)c2ccn(C(F)(F)F)n2)c1 [Compound I-371]
[1]
  IC50: 200 to 1000 nM
[2]
  IC50: 1000 to 3000 nM

## CCN1C(=O)[C@@H](NC(=O)c2cccc(C(F)(F)F)c2)[C@H](c2cccc(CNC/C=C/C(=O)N(C)C)c2)c2cnn(-c3ccccc3)c21 [Compound I-372]
[1]
  IC50: 200 to 1000 nM
[2]
  IC50: 1000 to 3000 nM

## C=C(CN1CCC12COC2)C(=O)N(C)Cc1cccc([C@@H]2c3cnn(-c4ccccc4)c3N(CC)C(=O)[C@H]2NC(=O)c2ccn(C3CC3)n2)c1 [Compound I-373]
[1]
  IC50: ≤ 200 nM
[2]
  IC50: 200 to 1000 nM

## C=C(CN1CCC1)C(=O)NCc1cccc([C@H]2c3c(C)nn(-c4ccccc4)c3N(CC)C(=O)[C@@H]2NC(=O)c2cccc(C(F)(F)F)c2)c1 [Compound I-374]
[1]
  IC50: 200 to 1000 nM
[2]
  IC50: 200 to 1000 nM

## C=C(CN1CC2(CCC2O)C1)C(=O)NCc1cccc([C@@H]2c3cnn(-c4ccccc4)c3N(CC)C(=O)[C@H]2NC(=O)c2cccc(C(F)(F)F)c2)c1 (stereo partly drawn) [Compound I-375]
[1]
  IC50: ≤ 200 nM
[3]
  IC50: ≤ 200 nM

## C=C(C(=O)NCc1cccc([C@@H]2c3cnn(-c4ccccc4)c3N(CC)C(=O)[C@@H]2NC(=O)c2nccc(C(F)(F)F)n2)c1)C(C)N1CC2(COC2)C1 (stereo partly drawn) [Compound I-377, N-((4R,5R)-7-ethyl-4-(3-((2-methylene-3-(2-oxa-6-azaspiro[3.3]heptan-6-yl)butanamido)methyl)phenyl)-6-oxo-1-phenyl-4,5,6,7-tetrahydro-1H-pyrazolo[3,4-b]pyridin-5-yl)-4-(trifluoromethyl)pyrimidine-2-carboxamide]
[1]
  IC50: 200 to 1000 nM
[2]
  IC50: 1000 to 3000 nM

## C/C=C(/CN1CCOCC1)C(=O)NCc1cccc([C@@H]2c3cnn(-c4ccccc4)c3N(CC)C(=O)[C@H]2NC(=O)c2ccn(C3CC3)n2)c1 [Compound I-381]
[1]
  IC50: 1000 to 3000 nM
[2]
  IC50: 1000 to 3000 nM

## C/C=C(\CN(C)C1COC1)C(=O)Nc1cccc([C@@H]2c3cnn(-c4ccccc4)c3N(CC)C(=O)[C@H]2NC(=O)c2nccc(C(F)(F)F)n2)c1 [Compound I-384]
[1]
  IC50: ≤ 200 nM
[2]
  IC50: 200 to 1000 nM

## C/C=C(/C(=O)Nc1cccc([C@@H]2c3cnn(-c4ccccc4)c3N(CC)C(=O)[C@H]2NC(=O)c2nccc(C(F)(F)F)n2)c1)C(C)N1CCC1 (stereo partly drawn) [Compound I-385]
[1]
  IC50: 1000 to 3000 nM
[2]
  IC50: 1000 to 3000 nM
